The supplement of paper PMC4380931

Experiments:
Test in all cases: relative viability (cell count relative to DMSO-treated control) (fraction of DMSO control); higher = more viable cells / less drug effect
[1] = system: COLO858
Description: (§1)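 BRAF V600E/D melanoma cell lines were seeded in 96-well plates, treated in 4 replicates with seven doses (3.16 nM to 3.16 uM) of RAF/MEK inhibitors for 24, 48 or 72 h, and stained with Hoechst 33342 (nuclei) and DEVD-NucView488 caspase-3 substrate. Plates were imaged on an Operetta. Relative viability is the cell count normalised to a DMSO-treated control; apoptosis fraction is the fraction of NucView488-positive nuclei.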

[2] = system: SKMEL28
Description: as §1

[3] = system: WM115
Description: as §1

[4] = system: MMACSF
Description: as §1

[5] = system: MZ7MEL
Description: as §1

[6] = system: LOXIMVI; settings: 24 h
Description: as §1

[7] = system: RVH421
Description: as §1

CN(C)CCOc1ccc(-c2nc(-c3ccncc3)c(-c3ccc4c(c3)CC/C4=N\O)[nH]2)cc1
relative viability
Settings	0.00316 µM	0.01 µM	0.0316 µM	0.1 µM	0.316 µM	1 µM	3.16 µM
[1], 24 h	0.866	1.21	1.2	1	0.946	0.883	0.811
[1], 48 h	0.963	1.03	0.929	0.584	0.431	0.341	0.277
[1], 72 h	1.07	1.21	0.906	0.605	0.494	0.381	0.29
[2], 48 h	0.835	1.45	1.59	1.29	1.1	0.906	0.643
[2], 72 h	1.08	0.92	0.897	0.734	0.542	0.544	0.373
[3], 24 h	1.06	1.33	1.36	1.4	1.35	1.15	1.28
[3], 48 h	1.31	1.47	1.54	1.44	1.42	0.972	0.683
[3], 72 h	1.03	1.02	0.889	0.773	0.683	0.584	0.573
[4], 24 h	1.03	0.999	0.9993	1.03	0.964	0.977	1.02
[4], 48 h	0.955	1.01	0.925	0.787	0.791	0.727	0.684
[4], 72 h	0.953	0.952	0.779	0.6	0.529	0.423	0.341
[5], 24 h	1.1	1.18	1.1	1.09	1.18	1.13	0.887
[5], 48 h	1.07	0.968	0.991	0.874	0.67	0.608	0.545
[5], 72 h	1.23	1.14	0.834	0.614	0.537	0.414	0.387
[7], 24 h	0.994	0.9379	1.04	1.034	1.01	1.02	0.929
[7], 48 h	1.07	0.849	0.803	0.689	0.672	0.638	0.513
[7], 72 h	0.983	0.995	0.872	0.702	0.641	0.575	0.542

[6]
Settings	relative viability
0.00316 µM	0.935
0.01 µM	1.01
0.0316 µM	1.02
0.1 µM	0.997
0.316 µM	1.02
1 µM	0.987
3.16 µM	0.903

Cc1ccc(NC(=O)c2cccc(C(C)(C)C#N)c2)cc1Nc1ccc2ncn(C)c(=O)c2c1 [AZ628]
relative viability
Settings	0.00316 µM	0.01 µM	0.0316 µM	0.1 µM	0.316 µM	1 µM	3.16 µM
[1], 24 h	0.923	1.12	1.16	0.982	0.938	0.902	0.816
[1], 48 h	0.965	1.08	0.778	0.48	0.368	0.319	0.248
[1], 72 h	1.05	1.13	0.716	0.475	0.392	0.307	0.213
[2], 48 h	0.879	1.4	1.44	1.16	0.947	0.896	0.614
[2], 72 h	1.13	1.01	0.791	0.526	0.507	0.489	0.442
[3], 24 h	1.19	1.47	1.51	1.53	1.37	0.87	0.946
[3], 48 h	1.06	1.19	1.47	1.31	1.11	0.658	0.424
[3], 72 h	1.03	1.04	0.801	0.594	0.281	0.172	0.0874
[4], 24 h	1.059	0.978	1	0.982	0.988	1	1.034
[4], 48 h	0.938	1.02	0.913	0.771	0.737	0.56	0.517
[4], 72 h	0.917	0.833	0.641	0.519	0.367	0.223	0.141
[5], 24 h	1.02	1.02	1.05	1.19	1.12	0.945	0.878
[5], 48 h	1.03	1.04	1	0.726	0.549	0.435	0.465
[5], 72 h	1.2	1.11	0.586	0.336	0.33	0.356	0.327
[7], 24 h	0.929	0.9636	1.05	1.06	1.02	0.993	0.908
[7], 48 h	1.06	0.944	0.81	0.666	0.696	0.65	0.544
[7], 72 h	0.956	0.915	0.741	0.58	0.537	0.47	0.412

[6]
Settings	relative viability
0.00316 µM	0.963
0.01 µM	0.949
0.0316 µM	0.956
0.1 µM	0.942
0.316 µM	0.86
1 µM	0.862
3.16 µM	0.822

Cn1cnc2c(F)c(Nc3ccc(Br)cc3Cl)c(C(=O)NOCCO)cc21 [Selumetinib]
relative viability
Settings	0.00316 µM	0.01 µM	0.0316 µM	0.1 µM	0.316 µM	1 µM	3.16 µM
[1], 24 h	0.844	1.09	1.24	1.12	1.01	0.937	0.856
[1], 48 h	0.983	1.05	1.06	0.702	0.455	0.374	0.315
[1], 72 h	0.974	1.05	0.843	0.545	0.427	0.342	0.28
[2], 48 h	0.799	1.31	1.43	1.12	0.964	0.852	0.604
[2], 72 h	1.06	0.975	0.804	0.543	0.449	0.419	0.337
[3], 24 h	1.06	1.27	1.36	1.27	1.46	0.89	0.728
[3], 48 h	1.02	1.39	1.37	1.48	1.24	0.823	0.592
[3], 72 h	1.03	1.07	0.918	0.751	0.587	0.409	0.287
[4], 24 h	1.11	1.02	1.022	1.05	0.989	1.04	1.06
[4], 48 h	0.907	1.01	0.88	0.743	0.748	0.664	0.533
[4], 72 h	0.924	0.759	0.563	0.449	0.344	0.21	0.141
[5], 24 h	1.03	1.13	1.11	1.07	1.07	0.997	0.809
[5], 48 h	1.01	1.01	1.04	0.797	0.508	0.504	0.492
[5], 72 h	1.14	1.06	0.58	0.328	0.349	0.308	0.31
[7], 24 h	0.975	0.995	1.032	1.03	1.09	1.02	0.919
[7], 48 h	1.04	0.884	0.795	0.721	0.659	0.658	0.593
[7], 72 h	1.01	0.988	0.849	0.657	0.566	0.511	0.488

[6]
Settings	relative viability
0.00316 µM	0.937
0.01 µM	0.976
0.0316 µM	1.02
0.1 µM	1.07
0.316 µM	0.98
1 µM	1
3.16 µM	0.913

CCCS(=O)(=O)Nc1ccc(F)c(C(=O)c2c[nH]c3ncc(-c4ccc(Cl)cc4)cc23)c1F [Vemurafenib]
relative viability
Settings	0.00316 µM	0.01 µM	0.0316 µM	0.1 µM	0.316 µM	1 µM	3.16 µM
[1], 24 h	0.782	1.02	1.05	0.988	0.916	0.824	0.703
[1], 48 h	0.926	1.02	1	0.933	0.574	0.362	0.215
[1], 72 h	1.21	1.18	1.31	1.15	0.68	0.393	0.127
[2], 48 h	0.828	1.18	1.18	1.07	0.973	0.71	0.542
[2], 72 h	0.955	0.88	0.947	0.922	0.651	0.491	0.39
[3], 24 h	1.17	1.2	1.22	1.18	1.17	1.22	1.24
[3], 48 h	1.04	1.24	1.24	1.45	1.73	1.31	0.884
[3], 72 h	0.953	1.04	1.05	1.07	0.855	0.571	0.27
[4], 24 h	0.923	0.887	0.976	1	0.89	0.9218	0.905
[4], 48 h	0.908	0.923	0.962	1	0.85	0.713	0.604
[4], 72 h	0.957	0.941	0.939	0.697	0.56	0.29	0.0882
[5], 24 h	0.982	1.11	1.08	1.08	1.15	1.1	0.938
[5], 48 h	1.04	1.09	1.07	1.07	0.955	0.667	0.54
[5], 72 h	1.29	1.39	1.19	0.871	0.587	0.367	0.349
[7], 24 h	0.8497	0.936	0.993	1	1.07	1.04	0.823
[7], 48 h	1.02	0.907	0.932	0.887	0.778	0.684	0.503
[7], 72 h	0.957	1.02	0.959	0.909	0.674	0.539	0.452

[6]
Settings	relative viability
0.00316 µM	0.969
0.01 µM	0.94
0.0316 µM	0.959
0.1 µM	0.96
0.316 µM	0.953
1 µM	0.95
3.16 µM	0.805

CCCS(=O)(=O)Nc1ccc(F)c(C(=O)c2c[nH]c3ncc(Cl)cc23)c1F [PLX4720]
relative viability
Settings	0.00316 µM	0.01 µM	0.0316 µM	0.1 µM	0.316 µM	1 µM	3.16 µM
[1], 24 h	1.03	1.15	1.21	1.17	1.02	0.946	0.808
[1], 48 h	0.968	1.07	1.06	0.893	0.538	0.407	0.306
[1], 72 h	1.13	1.2	1.19	0.893	0.569	0.417	0.273
[2], 48 h	0.824	1.43	1.48	1.42	1.12	0.941	0.61
[2], 72 h	0.973	0.881	0.968	0.866	0.598	0.458	0.389
[3], 24 h	1.14	1.39	1.49	1.44	1.58	1.02	1.14
[3], 48 h	1.25	1.37	1.32	1.83	1.67	1.24	0.792
[3], 72 h	1.01	1.03	1.03	1.06	0.8596	0.594	0.302
[4], 24 h	1.02	0.9436	0.974	1.04	0.991	1.02	1.06
[4], 48 h	0.92	1.02	1.01	1.01	0.854	0.764	0.679
[4], 72 h	0.937	0.923	0.86	0.632	0.531	0.336	0.146
[5], 24 h	1.02	1.02	1.14	1.19	1.13	0.956	0.795
[5], 48 h	1.04	0.99	1.02	1.09	0.931	0.608	0.48
[5], 72 h	1.28	1.16	1.07	0.661	0.504	0.382	0.329
[7], 24 h	0.932	1.01	0.9915	1.05	1.054	0.981	0.909
[7], 48 h	1.03	0.881	0.948	0.939	0.732	0.673	0.541
[7], 72 h	0.978	1.03	1.01	0.89	0.678	0.569	0.483

[6]
Settings	relative viability
0.00316 µM	0.917
0.01 µM	0.969
0.0316 µM	1.03
0.1 µM	1.1
0.316 µM	1.05
1 µM	1.04
3.16 µM	0.913
